Reference: patent publication US11214594B2, “Antimicrobial peptide having synergistic antibacterial effect with antibiotics on multidrug resistant bacteria, and use thereof” (priority 2016, dated 2022)
≈ marks a conversion by molar mass, not a printed value. Where a SMILES comes first, the peptide text is derived from it.

Experiments:
E. coli = experiment: MIC of antibiotic during combined treatment with antimicrobial peptide; assay type: cell-based, Escherichia coli; conditions: E. coli; vancomycin combined with peptide at 64 μg/ml
Procedure, shortened: (§1)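 Read-out is the MIC of each combined solution, obtained from MH-medium dilutions of antibiotic added well by well, with a reversed-condition run as well.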

S. epidermidis = experiment: microbe, parasite or virus in culture; assay type: cell-based, Staphylococcus epidermidis
Procedure, shortened: (§2)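 Each strain is brought to 2×10^6 CFU in nutrient-sufficient Mueller-Hinton medium and dispensed into wells. Peptide solutions, stepwise diluted 2:1 in the same medium, are then added. The minimal concentration preventing growth gives the MIC.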

B. subtilis = experiment: microbe, parasite or virus in culture; assay type: cell-based, Bacillus subtilis
Procedure, shortened: as §2

MDRST 8007 = experiment: Minimal inhibitory concentration (MIC), single agent; assay type: cell-based, Salmonella typhimurium; conditions: agent alone
Procedure, shortened: as §2

MRSA 3114 = assay type: cell-based, Staphylococcus aureus; conditions: 3114
Procedure, shortened: as §2

MRSA 3126 = assay type: cell-based, Staphylococcus aureus; conditions: 3126
Procedure, shortened: as §2

A. baumannii = experiment: MIC of antibiotic during combined treatment with antimicrobial peptide; assay type: cell-based, Acinetobacter baumannii; conditions: A. baumannii
Procedure, shortened: as §1

MDRAB 12035 = experiment: as above; assay type: cell-based, Acinetobacter baumannii
Procedure, shortened: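 Strains in MH medium at 2×10^6 CFU/ml were mixed with peptide diluted stepwise (2:1) from its MIC, then antibiotic dilutions in MH medium were added to give the antibiotic MIC. The reversed set-up, peptide titrated against fixed antibiotic, gave the peptide MIC.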

P. aeruginosa = experiment: microbe, parasite or virus in culture; assay type: cell-based, Pseudomonas aeruginosa
Procedure, shortened: as §2

[1] = combined with peptide at 1 μg/ml
[2] = combined with peptide at 2 μg/ml
[3] = combined with peptide at 4 μg/ml
[4] = combined with peptide at 6 μg/ml
[5] = combined with peptide at 8 μg/ml
[6] = combined with peptide at 16 μg/ml
[7] = combined with peptide at 32 μg/ml
[8] = combined with peptide at 64 μg/ml
[9] = peptide treatment concentration 1 μg/ml
[10] = peptide treatment concentration 2 μg/ml
[11] = peptide treatment concentration 4 μg/ml
[12] = peptide treatment concentration 6 μg/ml
[13] = peptide treatment concentration 8 μg/ml
[14] = peptide treatment concentration 16 μg/ml
[15] = peptide treatment concentration 32 μg/ml
[16] = peptide treatment concentration 64 μg/ml

CC[C@H](C)[C@H](NC(=O)[C@H](CCCCN)NC(=O)[C@H](Cc1c[nH]c2ccccc12)NC(=O)[C@@H](N)CCCNC(=N)N)C(=O)N[C@@H](Cc1ccccc1)C(=O)N[C@@H](CCCCN)C(=O)N[C@@H](CCCCN)C(=O)N[C@H](C(=O)N1CCC[C@H]1C(=O)N[C@@H](CCCCN)C(=O)N[C@@H](Cc1ccccc1)C(=O)N[C@@H](CC(C)C)C(=O)N[C@@H](Cc1c[nH]cn1)C(=O)N[C@@H](CO)C(=O)N[C@@H](Cc1c[nH]c2ccccc12)C(=O)N[C@@H](CCCCN)C(=O)N[C@@H](CCCCN)C(=O)N[C@@H](Cc1c[nH]c2ccccc12)C(N)=O)[C@@H](C)CC [PapMA-4, RWK IFK KIP KFL HSW KKW-NH2] (H-RWKIFKKIPKFLHSWKKW-NH2; N-terminus assumed)
Antibiotic MIC, Vancomycin (E. coli): 0 µg/mL
Minimal inhibitory concentration MIC (S. epidermidis): >128 µg/mL
Minimal inhibitory concentration MIC (B. subtilis): >128 µg/mL
Minimal inhibitory concentration MIC (MDRST 8007): 32 µg/mL (≈ 13 µM)
Minimal inhibitory concentration MIC (MRSA 3114): >128 µg/mL
Minimal inhibitory concentration MIC (MRSA 3126): >128 µg/mL
Antibiotic MIC, Erythromycin (A. baumannii; [1]): 32 µg/mL
Antibiotic MIC, Linezolid (A. baumannii; [1]): >128 µg/mL
Antibiotic MIC, Vancomycin (A. baumannii; [1]): >128 µg/mL
Antibiotic MIC, Erythromycin (A. baumannii; [2]): 16 µg/mL
Antibiotic MIC, Linezolid (A. baumannii; [2]): 64 µg/mL
Antibiotic MIC, Vancomycin (A. baumannii; [2]): 128 µg/mL
Antibiotic MIC, Erythromycin (A. baumannii; [3]): 8 µg/mL
Antibiotic MIC, Linezolid (A. baumannii; [3]): 64 µg/mL
Antibiotic MIC, Vancomycin (A. baumannii; [3]): 64 µg/mL
Antibiotic MIC, Erythromycin (A. baumannii; [4]): 4 µg/mL
Antibiotic MIC, Linezolid (A. baumannii; [4]): 32 µg/mL
Antibiotic MIC, Vancomycin (A. baumannii; [4]): 64 µg/mL
Antibiotic MIC, Erythromycin (A. baumannii; [5]): 4 µg/mL
Antibiotic MIC, Linezolid (A. baumannii; [5]): 16 µg/mL
Antibiotic MIC, Vancomycin (A. baumannii; [5]): 32 µg/mL
Antibiotic MIC, Erythromycin (A. baumannii; [6]): 0 µg/mL
Antibiotic MIC, Linezolid (A. baumannii; [6]): 0 µg/mL
Antibiotic MIC, Vancomycin (A. baumannii; [6]): 0 µg/mL
Antibiotic MIC, Erythromycin (A. baumannii; [7]): 0 µg/mL
Antibiotic MIC, Linezolid (A. baumannii; [7]): 0 µg/mL
Antibiotic MIC, Vancomycin (A. baumannii; [7]): 0 µg/mL
Antibiotic MIC, Erythromycin (A. baumannii; [8]): 0 µg/mL
Antibiotic MIC, Linezolid (A. baumannii; [8]): 0 µg/mL
Antibiotic MIC, Vancomycin (A. baumannii; [8]): 0 µg/mL
Erythromycin MIC during combined treatment with peptide (MDRAB 12035; [9]): 32 µg/mL
Linezolid MIC during combined treatment with peptide (MDRAB 12035; [9]): >128 µg/mL
Vancomycin MIC during combined treatment with peptide (MDRAB 12035; [9]): >128 µg/mL
Erythromycin MIC during combined treatment with peptide (MDRAB 12035; [10]): 16 µg/mL
Linezolid MIC during combined treatment with peptide (MDRAB 12035; [10]): 128 µg/mL
Vancomycin MIC during combined treatment with peptide (MDRAB 12035; [10]): >128 µg/mL
Erythromycin MIC during combined treatment with peptide (MDRAB 12035; [11]): 8 µg/mL
Linezolid MIC during combined treatment with peptide (MDRAB 12035; [11]): 64 µg/mL
Vancomycin MIC during combined treatment with peptide (MDRAB 12035; [11]): 128 µg/mL
Erythromycin MIC during combined treatment with peptide (MDRAB 12035; [12]): 4 µg/mL
Linezolid MIC during combined treatment with peptide (MDRAB 12035; [12]): 64 µg/mL
Vancomycin MIC during combined treatment with peptide (MDRAB 12035; [12]): 64 µg/mL
Erythromycin MIC during combined treatment with peptide (MDRAB 12035; [13]): 2 µg/mL
Linezolid MIC during combined treatment with peptide (MDRAB 12035; [13]): 32 µg/mL
Vancomycin MIC during combined treatment with peptide (MDRAB 12035; [13]): 64 µg/mL
Erythromycin MIC during combined treatment with peptide (MDRAB 12035; [14]): 0 µg/mL
Linezolid MIC during combined treatment with peptide (MDRAB 12035; [14]): 0 µg/mL
Vancomycin MIC during combined treatment with peptide (MDRAB 12035; [14]): 0 µg/mL
Erythromycin MIC during combined treatment with peptide (MDRAB 12035; [15]): 0 µg/mL
Linezolid MIC during combined treatment with peptide (MDRAB 12035; [15]): 0 µg/mL
Vancomycin MIC during combined treatment with peptide (MDRAB 12035; [15]): 0 µg/mL
Erythromycin MIC during combined treatment with peptide (MDRAB 12035; [16]): 0 µg/mL
Linezolid MIC during combined treatment with peptide (MDRAB 12035; [16]): 0 µg/mL
Vancomycin MIC during combined treatment with peptide (MDRAB 12035; [16]): 0 µg/mL
Minimal inhibitory concentration MIC (P. aeruginosa): 16 µg/mL (≈ 6.51 µM)
